“And” between values parts separate entries of the source, which are not always exact repeats. Equal entries are not always repeated. Where two headings read alike, the source gives them in different places.
Tests used:
[1] = biological target: T1, human recombinant αSYN fibrils (Homo sapiens, UniProt P37840); test: [3H]PiB competition binding assay on αSYN fibrils; conditions: for Ki: competition against 6 nM [3H]PiB, read-out: Ki (mean ± SEM)
Protocol: (§1) Concentrations of αSYN and Aβ1-42 fibrils were as described above.
Plates were incubated on a shaker (MaxQ 6000, Thermo Fisher Scientific Inc., Marietta, OH, USA) at 50 rpm for 2 hours at 37° C., covered by removable sealing tapes (PerkinElmer, Waltham, MA, USA). […] Data points were fitted using non-linear regression analysis in GraphPad Prism (GraphPad Software, Inc., Version 8.4.0, La Jolla, USA).

[2] = biological target: T1, human recombinant αSYN fibrils; test: [3H]MODAG-001 competition binding assay on αSYN fibrils; conditions: for competition with [3H]MODAG-001: result in words
Protocol: as §1
Plates were incubated on a shaker (MaxQ 6000, Thermo Fisher Scientific Inc., Marietta, OH, USA) at 50 rpm for 2 hours at 37° C., covered by removable sealing tapes (PerkinElmer, Waltham, MA, USA). Vacuum filtration and read-out were performed as disclosed in Kuebler, L. et al., [^11C]MODAG-001-towards a PET tracer targeting α-synuclein aggregates; European Journal of Nuclear Medicine and Molecular Imaging 2020, 48, 1759-1772. […] Data points were fitted using non-linear regression analysis in GraphPad Prism (GraphPad Software, Inc., Version 8.4.0, La Jolla, USA).

[3] = biological target: αSYN pathology in MSA human brain slices (Homo sapiens, UniProt P37840); test: In vitro autoradiography on MSA human brain slices (cerebellum); assay type: binding
Protocol: (§2) Post-mortem human brain slices (10 μm thickness) were obtained from and the subject cases were analyzed by the Neurobiobank München (NBM, Munich, Germany), where tissues were collected on the basis of written informed consent according to the guidelines of the ethics committee of the Ludwig-Maximilians-University Munich, Germany (#345-13). The use of brain tissue samples in this study was approved by the ethics committee of the Faculty of Medicine at the University of Tuebingen (Ethics approval number: 813/2018BO2). Table 1 summarizes the information of the subjects from which samples were obtained and used in the experiment.
(§3) For autoradiography, brain slices were thawed for one hour before pre-incubation in BSA buffer for 25 minutes at room temperature. To determine total binding (TB), brain slices were incubated with the tracer (10 nM [^18F]PFSB, 10 nM [^18F]MFSB). Incubation of consecutive slices with the correspondent non-radioactive compounds (10 μM PFSB, […]) was performed to determine non-specific binding (NSB). The non-radioactive compounds were prepared by dissolving in DMSO to 10 mM, which yielded DMSO concentration of ≤0.1% in the final solution. Incubation was carried out for one hour at room temperature with subsequent washing in cold BSA buffer (three times for ten minutes) followed by three dipping in cold deionized water. After drying under UV lamps, brain slices were exposed to a storage phosphor screen (Molecular Dynamics, Caesarea, Israel) for 18 hours, which was then scanned in a phosphor imager (STORM 840, Molecular dynamics, Sunnyvale, CA, USA).
(§4) Quantitative data analysis was performed by drawing four regions of interest (ROIs) in relevant areas of the slice and one ROI next to it for background subtraction (ImageJ 1.8.0_172, National Institute of Health, Bethesda, Maryland, USA) (Schneider, C. A. et al., NIH Image to ImageJ: 25 years of image analysis; Nat Methods 2012, 9 (7), 671-5). Specific binding (SB) is obtained by subtracting NSB from TB. The SB disease/SB control ratio was calculated by dividing by the SB in diseased tissues with the respective SB in control tissues.

[4] = biological target: T2, Aβ plaques in AD human brain slices (Homo sapiens, UniProt P05067); test: In vitro autoradiography on AD human brain slices (frontal cortex); assay type: binding
T2 construct: mainly Abeta40/42 cut from APP) in post-mortem AD frontal cortex slices
Protocol: as §2, §3, §4

[5] = biological target: αSYN pathology in PD human brain slices (Homo sapiens, UniProt P37840); test: In vitro autoradiography on PD human brain slices (frontal cortex); assay type: binding; conditions: 10 nM tracer; NSB with 10 μM non-radioactive compound
Protocol: as §2
For autoradiography, brain slices were thawed for one hour before pre-incubation in BSA buffer for 25 minutes at room temperature. To determine total binding (TB), brain slices were incubated with the tracer (10 nM [^18F]PFSB, 10 nM [^18F]MFSB). […]
as §4, with “Specific binding (SB) is obtained by subtracting NSB from TB.” left out

[6] = biological target: T3, synthetic human Aβ1-42 fibrils (Homo sapiens, UniProt P05067); test: [3H]PiB competition binding assay on Aβ fibrils; conditions: result in words; FIG. 4b, 6b
T3 construct: chain cut from APP
Source text: The method for Aβ1-42 fibrils generation was adapted from Bagchi, D. P. et al., Binding of the radioligand SIL23 to alpha-synuclein fibrils in Parkinson disease brain tissue establishes feasibility and screening approaches for developing a Parkinson disease imaging agent; PLoS One 2013, 8 (2), e55031, and described in Kuebler, L. et al., [^11C]MODAG-001-towards a PET tracer targeting α-synuclein aggregates; European Journal of Nuclear Medicine and Molecular Imaging 2020, 48, 1759-1772. Synthetic lyophilized human Aβ1-42 peptide (5 mg) with >90% purity (EMC Microcollections, Tuebingen, Germany) was dissolved in DMSO (221.5 μL), followed by the addition of deionized water (4.1 mL) and 1 M Tris-HCl (111 μL, pH 7.6) to reach a final monomeric concentration of 250 μM. Aggregation was induced by incubation in Eppendorf Thermomixer at 37° C. with shaking at 800 rpm for 72 hours. […]
Plates were incubated on a shaker (MaxQ 6000, Thermo Fisher Scientific Inc., Marietta, OH, USA) at 50 rpm for 2 hours at 37° C., covered by removable sealing tapes (PerkinElmer, Waltham, MA, USA). Vacuum filtration and read-out were performed as disclosed in Kuebler, L. et al., [^11C]MODAG-001-towards a PET tracer targeting α-synuclein aggregates; European Journal of Nuclear Medicine and Molecular Imaging 2020, 48, 1759-1772. […]

[7] = methylated compounds, two data points
[8] = non-methylated compounds, two data points (three for 9a, 14a, 15a, 17a, 18a; single for 12a)
[9] = 10 nM tracer, NSB with 10 μM non-radioactive compound

T2 sequence (P05067 672-713 limits assumed): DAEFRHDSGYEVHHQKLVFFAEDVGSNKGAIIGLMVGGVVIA
T3 sequence (P05067 672-713): as the sequence (P05067 672-713 limits assumed) above

## CN(C)c1ccc(C=Cc2sc3ccccc3[n+]2C)cc1 [Compound 19b, 2-(4-(dimethylamino)styryl)-3-methylbenzo[d]thiazol-3-ium Iodide]
[1]; [7]
  Ki: > 400 nM

## C[n+]1c(-c2ccc(N3CCCCC3)cc2)sc2ccccc21 [Compound 13b, 3-methyl-2-(4-(piperidin-1-yl)phenyl)benzo[d]thiazol-3-ium]
[1]; [7]
  Ki: > 400 nM

## Fc1ccc2nc(C=Cc3ccc(N4CCOCC4)cc3)sc2c1 [Compound 45, 4-(4-(2-(6-fluorobenzo[d]thiazol-2-yl)vinyl)phenyl)morpholine]
[2]; [3H]MODAG-001 competition, versus PFSB
  fold lower Ki of MFSB than PFSB: 4.6 fold
[2]
  competition with [3H]MODAG-001: moderate to good competition
[1]; [3H]PiB competition, versus PFSB
  improvement of affinity (Ki) of MFSB compared to PFSB: 2.5 factor

## C(=Cc1nc2ccccc2s1)c1ccc(N2CCOCC2)cc1 [Compound 15a, 4-(4-(2-(benzo[d]thiazol-2-yl)vinyl)phenyl)morpholine]
[1]; result in words
  affinity relative to N-piperidine analog 20: comparable affinity

## Cc1cccc2nc(C=Cc3ccc(N4CCCCC4)cc3)sc12 [Compound 10a, 7-methyl-2-(4-(piperidin-1-yl)styryl)benzo[d]thiazole]
[1]; [8]
  Ki: > 400 nM

## C[n+]1c(C=Cc2ccc(N3CCCCC3)cc2)sc2c(F)cccc21 [Compound 12b, 7-fluoro-3-methyl-2-(4-(piperidin-1-yl)styryl)benzo[d]thiazol-3-ium Iodide]
[1]; [7]
  Ki: > 400 nM

## [18F]c1ccc2nc(/C=C/c3ccc(N4CCCCC4)cc3)sc2c1 [[^18F]PFSB]
[3]; [9]
  SB disease/SB control, MSA1/cerebellum ctrl: 3.73
  SB disease/SB control, MSA2/cerebellum ctrl: 4.15
[3]; MSA patients, same brain area, 10 nM tracer
  specific binding ratio of MSA brain slices compared to the control: 3.94±0.30
[3]; autoradiography, result in words, FIG. 12
  selectivity towards αSYN over Aβ: selectivity towards αSYN over Aβ
[3]; result in words, FIG. 12
  affinity to αSYN pathology: displayed affinity to αSYN pathology
[4]; [9]
  SB disease/SB control, AD/frontal cortex ctrl: 1.06 and 1.03
[4]; result in words, FIG. 12
  binding in AD brain regions with Aβ plaques / AD/frontal cortex SB ratio in words: no increased binding
[5]
  SB disease/SB control, PD/frontal cortex ctrl: 1.51

## C[n+]1c(C=Cc2ccc(N3CCCCC3)cc2)sc2cccc(F)c21 [Compound 3b, 4-fluoro-3-methyl-2-(4-(piperidin-1-yl)styryl)benzo[d]thiazol-3-ium 4-nitrobenzenesulfonate]
[1]; [7]
  Ki: > 400 nM

## Fc1ccc2nc(C=CC=Cc3ccc(N4CCCC4)cc3)sc2c1 [Compound 44, 6-fluoro-2-(4-(4-(pyrrolidin-1-yl)phenyl)buta-1,3-dien-1-yl)benzo[d]thiazole]
[6]
  competition with [3H]PiB / binding to Aβ fibrils: the binding to Aβ remained low

## C[n+]1c(C=Cc2ccc(N3CCSCC3)cc2)sc2ccccc21 [Compound 16b, 3-methyl-2-(4-thiomorpholinostyryl)benzo[d]thiazol-3-ium Iodide]
[1]; [7]
  Ki: > 400 nM

## COc1cccc2nc(C=Cc3ccc(N4CCCCC4)cc3)sc12 [Compound 11a, 7-methoxy-2-(4-(piperidin-1-yl)styryl)benzo[d]thiazole]
[1]; [8]
  Ki: > 400 nM

## CN(C)c1ccc(C=Cc2nc3ccccc3s2)cc1 [Compound 19a, 4-(2-(benzo[d]thiazol-2-yl)vinyl)-N,N-dimethylaniline]
[1]; [8]
  Ki: > 400 nM

## Fc1ccc2nc(C=CC=Cc3ccc(N4CCCCC4)cc3)sc2c1 [Compound 43, 6-fluoro-2-(4-(4-(piperidin-1-yl)phenyl)buta-1,3-dien-1-yl)benzo[d]thiazole]
[6]
  competition with [3H]PiB / binding to Aβ fibrils: the binding to Aβ remained low

## Fc1ccc2nc(C=Cc3ccc(N4CCCCC4)cc3)sc2c1 (mixture of isomers) [Compound 9a, 6-fluoro-2-(4-(piperidin-1-yl)styryl)benzo[d]thiazole]
[2]
  competition with [3H]MODAG-001: moderate to good competition

## COc1cccc2sc(C=Cc3ccc(N4CCCCC4)cc3)nc12 [Compound 2a, 4-methoxy-2-(4-(piperidin-1-yl)styryl)benzo[d]thiazole]
[1]; [8]
  Ki: > 400 nM

## CN1CCN(c2ccc(C=Cc3sc4ccccc4[n+]3C)cc2)CC1 [RB2, 3-methyl-2-(4-(4-methylpiperazin-1-yl)styryl)benzo[d]thiazol-3-ium Iodide, reference compound]
[1]; [7]
  Ki: > 400 nM

## C[n+]1c(C=Cc2ccc(N3CCC(F)CC3)cc2)sc2ccccc21 [Compound 18b, 2-(4-(4-fluoropiperidin-1-yl)styryl)-3-methylbenzo[d]thiazol-3-ium Iodide]
[1]; [7]
  Ki: > 400 nM

## C[n+]1c(C=Cc2ccc(N3CCOCC3)cc2)sc2ccccc21 [Compound 15b, 3-methyl-2-(4-morpholinostyryl)benzo[d]thiazol-3-ium Iodide]
[1]; [7]
  Ki: > 400 nM

— patent publication US20260327195A1, “2-STYRYLBENZOTHIAZOLE DERIVATIVES AS ALPHA-SYNUCLEIN BINDING COMPOUNDS” (Eberhard Karls Universität Tübingen Medizinische Fakultät, priority 2023, published 2026)
